# Source: patent US8133871B2, “Dihydropseudoerythromycin derivatives” (The Kitasato Institute, priority 2005, dated 2012)
# Where two headings read alike, the source gives them in different places.
# Assays:
# Format in all cases: cell-based
# THP-1 cells = experiment: THP-1 differentiation induction-promoting activity; settings: Homo sapiens, THP-1; lowest concentration necessary to show 50% activity relative to the activity value of erythromycin A at 100 μM; PMA 1-2 μM, 72-96 hr
# Description: As one index of the anti-inflammatory action of the compound of the present invention, the differentiation induction-promoting activity of THP-1 cell was measured. The measurement was performed as shown below.
# THP-1 cells (ATCC No. TIB-202) were adjusted to a concentration of 2×10^5 cells/ml with a medium (RPMI 1640), PMA was added thereto to a final concentration of 1-2 μM, and the mixture was dispensed to each well of a 96 well plate by 100 μl. A solution (100 μl) containing a test substance was adjusted to an appropriate concentration with the medium and added to each well. The mixture was stirred by gently shaking the plate, and incubated under 37° C., 5% CO2 conditions for 72-96 hr. Each well was washed with PBS, a medium containing the viable cell measurement reagent SF (Nacalai Tesque) was added at 100 μl/well and the mixture was incubated under the conditions of 37° C., 5% CO2 for 3-5 hr. The absorbance was measured with a plate reader.
# In the Table, the activity value is the lowest concentration necessary for the test compound to show a 50% activity value relative to the activity value of erythromycin A at 100 μM in this experiment.
# THP-1 differentiation induction-promoting activity: The lowest concentration necessary for each compound to show 50% activity relative to the activity value of erythromycin A at 100 μM.
# A. calcoaceticus IFO2552 = experiment: antibacterial activity, MIC (NCCLS method); settings: Acinetobacter calcoaceticus
# Description: (§1) The antibacterial activity of the compound of the present invention and erythromycin were measured according to the antibacterial sensitivity measurement method of the US National Committee for Clinical Laboratory Standards (NCCLS). The values of minimum inhibitory concentration (MIC) (μg/ml) of each compound against bacteria are shown therein.
# M. luteus ATCC9341 = experiment: antibacterial activity, MIC (NCCLS method); settings: Micrococcus luteus
# Description: as §1
# E. aerogen NCTC10006 = experiment: antibacterial activity, MIC (NCCLS method)
# Description: as §1
# E. coli NIHJ JC-2 = experiment: antibacterial activity, MIC (NCCLS method); settings: Escherichia coli, NIHJJC2
# Description: as §1
# E. faecalis ATCC21212 = experiment: antibacterial activity, MIC (NCCLS method); settings: Enterococcus faecalis
# Description: as §1
# S. aureus 8325 (pEP2104) = experiment: antibacterial activity, MIC (NCCLS method); settings: Staphylococcus aureus
# Description: as §1
# K. pneumoniae NCTN9632 = experiment: antibacterial activity, MIC (NCCLS method); settings: Klebsiella pneumoniae
# Description: as §1
# S. aureus FDA209P = experiment: antibacterial activity, MIC (NCCLS method); settings: Staphylococcus aureus
# Description: as §1
# S. epidermidis IFO12648 = experiment: antibacterial activity, MIC (NCCLS method); settings: Staphylococcus epidermidis
# Description: as §1
# S. marcescens IFO12648 = experiment: antibacterial activity, MIC (NCCLS method); settings: Serratia marcescens
# Description: as §1
# S. aureus Smith = experiment: antibacterial activity, MIC (NCCLS method); settings: Staphylococcus aureus
# Description: as §1
# [1] = A. calcoaceticus IFO2552 2002.2.1, read-out: MIC
# [2] = M. luteus ATCC9341 2002.1.31, read-out: MIC
# [3] = E. coli NIHJ JC-2 2002.1.31, read-out: MIC
# [4] = E. faecalis ATCC21212 2002.1.31, read-out: MIC
# [5] = K. pneumoniae NCTN9632 2002.1.31, read-out: MIC
# [6] = S. aureus FDA209P 2002.1.31, read-out: MIC
# [7] = S. epidermidis IFO12648 2002.1.31, read-out: MIC
# [8] = S. aureus Smith 2002.1.31, read-out: MIC
Structure (SMILES),minimal effective concentration (THP-1 cells) [µM],MIC (A. calcoaceticus IFO2552; [1]) [µg/mL],MIC (M. luteus ATCC9341; [2]) [µg/mL],MIC (E. coli NIHJ JC-2; [3]) [µg/mL],MIC (E. faecalis ATCC21212; [4]) [µg/mL],MIC (S. aureus 8325 (pEP2104)) [µg/mL],MIC (K. pneumoniae NCTN9632; [5]) [µg/mL],MIC (S. aureus FDA209P; [6]) [µg/mL],MIC (S. epidermidis IFO12648; [7]) [µg/mL],MIC (S. aureus Smith; [8]) [µg/mL],MIC (E. aerogen NCTC10006) [µg/mL],MIC (S. marcescens IFO12648; IFO12648) [µg/mL],MIC (A. calcoaceticus IFO2552; IFO2552) [µg/mL],MIC (E. coli NIHJ JC-2) [µg/mL],MIC (E. faecalis ATCC21212; ATCC21212) [µg/mL],MIC (K. pneumoniae NCTN9632; NCTN9632) [µg/mL],MIC (S. aureus FDA209P; FDA209P) [µg/mL],MIC (S. epidermidis IFO12648; IFO12648) [µg/mL],MIC (S. aureus Smith) [µg/mL],other results
"CC[C@H]1OC(=O)O[C@@]1(C)[C@@H]1OC(=O)[C@H](C)C(=O)[C@H](C)[C@@H](O[C@@H]2OC(C)CC(N(C)Cc3ccc(Cl)cc3)C2O)[C@]2(C)CC(C)C(O2)[C@@H]1C (some centres unmarked) [EM939, de(3′-N-methyl)-3′-N-(p-chlorobenzyl)-de(3-O-cladinosyl)-9-dihydro-3-keto-pseudoerythromycin A 6,9-epoxide 12,13-carbonate]",3,> 64,> 64,> 64,> 64,> 64,> 64,> 64,> 64,> 64,–,–,–,–,–,–,–,–,–,"MIC (E. aerogen NCTC10006; E. aerogen NCTC10006 2002.2.1, read-out: MIC): > 64 µg/mL; MIC (S. marcescens IFO12648; S. marcescens IFO12648 2002.2.1, read-out: MIC): > 64 µg/mL"
CC[C@H]1OC(=O)[C@H](C)[C@@H](O[C@H]2C[C@@](C)(OC)[C@@H](O)[C@H](C)O2)[C@H](C)[C@@H](O[C@@H]2O[C@H](C)C[C@H](N(C)C)[C@H]2O)[C@](C)(O)C[C@@H](C)C(=O)[C@H](C)[C@@H](O)[C@]1(C)O [erythromycin],–,4,≤ 0.5,64,1,64,32,≤ 0.5,≤ 0.5,≤ 0.5,128,128,–,–,–,–,–,–,–,–
"CC[C@@H](O)[C@@](C)(O)[C@@H]1OC(=O)[C@H](C)[C@@H](O[C@H]2CC(C)(OC)[C@@H](O)C(C)O2)[C@H](C)[C@@H](O[C@@H]2OC(C)CC(NC)C2O)[C@@]2(C)CC(C)C(O2)[C@@H]1C (some centres unmarked) [EM901, de(3′-N-methyl)-9-dihydro-pseudoerythromycin A 6,9-epoxide]",30,–,–,–,–,> 128,–,–,–,–,> 128,> 128,> 128,> 128,> 128,> 128,> 128,> 128,> 128,MIC (M. luteus ATCC9341; ATCC9341): > 128 µg/mL
"CC[C@@H](O)[C@@](C)(O)[C@@H]1OC(=O)[C@H](C)[C@@H](O[C@H]2CC(C)(OC)[C@@H](O)C(C)O2)[C@H](C)[C@@H](O[C@@H]2OC(C)CC(N(C)C)C2O)[C@@]2(C)CC(C)C(O2)[C@@H]1C (some centres unmarked) [EM900, 9-dihydro-pseudoerythromycin A 6,9-epoxide]",30,–,128,–,–,> 128,–,–,–,–,> 128,> 128,> 128,> 128,> 128,> 128,> 128,> 128,> 128,–
